Among the data in BindingDB's records for doi:10.1021/jm00075a032 (University of Bologna, 1993) are Ki values, retold here.

For experiment [1], the target named is T1, Muscarinic acetylcholine receptor M2 (Rattus norvegicus, UniProt P10980).
T1 sequence (P10980 whole entry): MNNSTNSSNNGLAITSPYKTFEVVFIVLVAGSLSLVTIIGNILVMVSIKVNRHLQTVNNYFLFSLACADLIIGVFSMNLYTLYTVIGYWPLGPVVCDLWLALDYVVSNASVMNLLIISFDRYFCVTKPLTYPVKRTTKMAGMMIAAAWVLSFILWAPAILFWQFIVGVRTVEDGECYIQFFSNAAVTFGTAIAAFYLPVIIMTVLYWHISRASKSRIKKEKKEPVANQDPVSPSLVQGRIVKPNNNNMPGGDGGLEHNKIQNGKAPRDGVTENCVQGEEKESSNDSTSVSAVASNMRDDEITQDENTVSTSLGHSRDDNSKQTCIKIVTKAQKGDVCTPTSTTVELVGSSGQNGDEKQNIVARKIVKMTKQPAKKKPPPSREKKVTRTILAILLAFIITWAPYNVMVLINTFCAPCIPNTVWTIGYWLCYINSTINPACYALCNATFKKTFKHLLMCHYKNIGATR

Experiment [2] addresses T2, Muscarinic acetylcholine receptor M1 (Rattus norvegicus, UniProt P08482).
T2 sequence (P08482 whole entry): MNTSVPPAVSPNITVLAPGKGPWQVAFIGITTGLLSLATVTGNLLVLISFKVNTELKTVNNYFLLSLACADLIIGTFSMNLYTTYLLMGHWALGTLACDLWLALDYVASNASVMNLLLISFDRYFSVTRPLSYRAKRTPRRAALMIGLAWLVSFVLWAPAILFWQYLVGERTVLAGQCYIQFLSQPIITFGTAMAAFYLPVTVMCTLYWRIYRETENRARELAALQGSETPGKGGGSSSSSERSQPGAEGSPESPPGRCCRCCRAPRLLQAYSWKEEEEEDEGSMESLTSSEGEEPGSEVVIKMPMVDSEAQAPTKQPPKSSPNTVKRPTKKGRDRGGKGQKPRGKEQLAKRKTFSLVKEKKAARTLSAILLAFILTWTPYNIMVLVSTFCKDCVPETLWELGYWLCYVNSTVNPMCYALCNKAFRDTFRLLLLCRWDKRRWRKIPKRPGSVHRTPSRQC

In experiment [3] the target is Muscarinic acetylcholine receptor M3 (Rattus norvegicus, UniProt P08483).
Sequence of Muscarinic acetylcholine receptor M3 (P08483 whole entry): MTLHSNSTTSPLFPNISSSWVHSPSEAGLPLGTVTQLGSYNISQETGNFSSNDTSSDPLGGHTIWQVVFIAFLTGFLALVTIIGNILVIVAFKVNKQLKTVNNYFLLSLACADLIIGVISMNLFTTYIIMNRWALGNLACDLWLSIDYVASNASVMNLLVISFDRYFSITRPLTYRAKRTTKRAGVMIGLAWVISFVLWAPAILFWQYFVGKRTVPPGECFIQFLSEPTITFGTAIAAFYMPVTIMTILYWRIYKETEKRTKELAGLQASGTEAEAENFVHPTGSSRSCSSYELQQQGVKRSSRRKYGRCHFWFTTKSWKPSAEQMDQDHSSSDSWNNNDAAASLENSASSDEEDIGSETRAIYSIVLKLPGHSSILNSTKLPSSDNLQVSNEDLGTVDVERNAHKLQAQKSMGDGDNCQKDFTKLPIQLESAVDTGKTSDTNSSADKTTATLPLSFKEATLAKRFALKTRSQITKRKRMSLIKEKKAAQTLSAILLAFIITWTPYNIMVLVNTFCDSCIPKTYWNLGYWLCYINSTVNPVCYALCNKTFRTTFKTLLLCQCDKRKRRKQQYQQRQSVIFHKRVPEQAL
The target of experiment [4] is T3, Muscarinic acetylcholine receptor M4 (Rattus norvegicus, UniProt P08485).
T3 sequence (P08485 whole entry): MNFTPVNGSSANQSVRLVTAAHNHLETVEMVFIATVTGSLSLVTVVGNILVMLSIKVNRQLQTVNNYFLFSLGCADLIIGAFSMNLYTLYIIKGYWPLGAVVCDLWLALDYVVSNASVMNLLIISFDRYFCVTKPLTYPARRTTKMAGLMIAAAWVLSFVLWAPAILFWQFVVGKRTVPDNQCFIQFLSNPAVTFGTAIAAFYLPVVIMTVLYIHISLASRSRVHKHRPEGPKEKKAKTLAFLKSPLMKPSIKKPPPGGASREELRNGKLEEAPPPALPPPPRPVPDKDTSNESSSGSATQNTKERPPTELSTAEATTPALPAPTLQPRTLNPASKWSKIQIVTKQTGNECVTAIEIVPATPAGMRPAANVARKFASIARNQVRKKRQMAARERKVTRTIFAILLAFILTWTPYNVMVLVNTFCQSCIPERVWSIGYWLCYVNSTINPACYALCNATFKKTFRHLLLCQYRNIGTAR

Turning to `CN(CCCCCCNCCCCCCCCNCCCCCCN(CN1c2ccccc2C(=O)Nc2cccnc21)CN1c2ccccc2C(=O)Nc2cccnc21)CN1c2ccccc2C(=O)Nc2cccnc21` [methoctramine analog 5], the Ki was determined as 0.29 nM in experiment [1], 23.4 nM in experiment [2], 646 nM in experiment [3] and 11.7 nM in experiment [4].

As a reminder, the Ki is the equilibrium dissociation constant of an inhibitor or competing ligand from its target. Lower therefore signals higher affinity.
